Measured values from US20260151375A1, “CDK2 INHIBITORS AND METHODS OF USING THE SAME” (Cedilla Therapeutics, Inc., priority 2022, published 2026).
pIC50: −log10 of the molar value.

How the values were obtained:
[1] = molecular target: T1, CDK2/Cyclin E1 (Homo sapiens, UniProt P24941); assay: Caliper Assay (LabChip EZ Reader mobility shift assay), inhibition of CDK2/Cyclin E1 activity; format: biochemical; conditions: 2.5 nM CDK2/Cyclin E1(14-475), 100 μM ATP, 30 min preincubation; read-out: Caliper Assay (CDK2/CCNE1): IC50
T1 construct: purchased 14-475
How it was run: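 Compounds were preincubated 30 min with CDK2/Cyclin E1(14-475), then run for 100 min with 2.5 nM enzyme, 100 μM ATP and 1.5 μM 5-FAM-QSPKKG peptide in HEPES pH 7.5 (final). Reactions were EDTA-stopped and substrate-to-product conversion read by mobility shift. IC50 came from a four-parameter fit.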

[2] = test system: Kuramochi cells; assay: IncuCyte Kuramochi Assay (cell proliferation); format: cell-based; conditions: 72 h, Kuramochi cells labeled with mApple-H2B, cell count, read-out: IncuCyte - Kuramochi RB-WT: IC50
How it was run: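 Cells imaged at 0 and 72 h after compound treatment (10 points, ½ log dilution, 20 μM top), with fluorescent nuclei counted. Fold change in count was normalized to DMSO wells and fitted to dose-response curves to give GI50.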

| pIC50 [1] | Compound | pIC50 [2] |
| --- | --- | --- |
| 6.00 to 7.00 | CC(c1coc(C2CCCC2)n1)c1nc(C2CN(C(=O)c3cncs3)CC23CN(C(=O)[C@H]2CC2(C)C)C3)no1 (some centres unmarked) [I-100] | 5.00 to 5.30 |
| < 5.00 | CC1(C)C[C@@H]1C(=O)N1CC2(C1)CN(c1cccc3ncsc13)CC2c1nnc(Cc2ccc(Cl)c(Cl)c2)o1 (stereo partly drawn) [I-101, (6-(benzo[d]thiazol-7-yl)-8-(5-(3,4-dichlorobenzyl)-1,3,4-oxadiazol-2-yl)-2,6-diazaspiro[3.4]octan-2-yl)((S)-2,2-dimethylcyclopropyl)methanone] | < 5.00 |
| 7.00 to 8.00 | CC(C)(c1cccc(C2CCOCC2)n1)c1nnc(C2CN(C(=O)c3cncs3)CC23CN(C(=O)[C@H]2CC2(C)C)C3)o1 (some centres unmarked) [I-102] | < 5.00 |
| < 5.00 | Cc1nc(C)c(C(=O)N2CC(c3nnc(C(F)(F)c4ccc(Cl)c(Cl)c4)o3)C3(C2)CN(C(=O)[C@H]2CC2(F)F)C3)s1 (stereo partly drawn) [I-103, (8-(5-((3,4-dichlorophenyl)difluoromethyl)-1,3,4-oxadiazol-2-yl)-2-((R)-2,2-difluorocyclopropane-1-carbonyl)-2,6-diazaspiro[3.4]octan-6-yl)(2,4-dimethylthiazol-5-yl)methanone] | < 5.00 |
| 6.00 to 7.00 | Cc1nc(C)c(C(=O)N2CC(c3nnc(C(C)c4cccc(C5(C(F)(F)F)CC5)n4)o3)C3(C2)CN(C(=O)[C@H]2CC2(C)C)C3)s1 (some centres unmarked) [I-104] | < 5.00 |
| < 5.00 | CC1(C)C[C@@H]1C(=O)N1CC2(C1)CN(c1ncnc3ncsc13)CC2c1nnc(Cc2cccc(C3CCOCC3)n2)o1 (stereo partly drawn) [I-105, ((S)-2,2-dimethylcyclopropyl)(8-(5-((6-(tetrahydro-2H-pyran-4-yl)pyridin-2-yl)methyl)-1,3,4-oxadiazol-2-yl)-6-(thiazolo[4,5-d]pyrimidin-7-yl)-2,6-diazaspiro[3.4]octan-2-yl)methanone] | < 5.00 |
| 5.00 to 6.00 | O=C(c1cncs1)N1CC(c2nc3ccc(Oc4ccccc4)cc3o2)C2(C1)CN(C(=O)[C@H]1CC1(F)F)C2 (stereo partly drawn) [I-144, (2-((R)-2,2-difluorocyclopropane-1-carbonyl)-8-(6-phenoxybenzo[d]oxazol-2-yl)-2,6-diazaspiro[3.4]octan-6-yl)(thiazol-5-yl)methanone] | < 5.00 |
| < 5.00 | O=C(c1cncs1)N1CC(c2nc3cc(Oc4ccccc4)ccc3o2)C2(C1)CN(C(=O)[C@H]1CC1(F)F)C2 (stereo partly drawn) [I-145, (2-((R)-2,2-difluorocyclopropane-1-carbonyl)-8-(5-phenoxybenzo[d]oxazol-2-yl)-2,6-diazaspiro[3.4]octan-6-yl)(thiazol-5-yl)methanone] | < 5.00 |
| < 4.00 | CC(C)(C#N)C(=O)N1CC2(CN(Cc3cnccn3)CC2c2nnc(C(F)(F)c3ccc(Cl)c(Cl)c3)o2)C1 (centres unmarked) [I-146] | < 5.00 |
| < 4.00 | O=C(C1CNC1)N1CC(c2nnc(C(F)(F)c3ccc(Cl)c(Cl)c3)o2)C2(C1)CN(C(=O)[C@H]1CC1(F)F)C2 (some centres unmarked) [I-147] | < 5.00 |
| < 5.00 | O=C([C@H]1CC1(F)F)N1CC2(C1)CN(C(=O)N1CCOCC1)CC2c1nnc(C(F)(F)c2ccc(Cl)c(Cl)c2)o1 (stereo partly drawn) [I-148, (8-(5-((3,4-dichlorophenyl)difluoromethyl)-1,3,4-oxadiazol-2-yl)-2-((R)-2,2-difluorocyclopropane-1-carbonyl)-2,6-diazaspiro[3.4]octan-6-yl)(morpholino)methanone] | < 5.00 |
| < 5.00 | O=C(c1nncs1)N1CC(c2nnc(C(F)(F)c3ccc(Cl)c(Cl)c3)o2)C2(C1)CN(C(=O)[C@H]1CC1(F)F)C2 (some centres unmarked) [I-149] | < 5.00 |
| < 5.00 | O=C(C1CCNCC1)N1CC(c2nnc(C(F)(F)c3ccc(Cl)c(Cl)c3)o2)C2(C1)CN(C(=O)[C@H]1CC1(F)F)C2 (stereo partly drawn) [I-150, (8-(5-((3,4-dichlorophenyl)difluoromethyl)-1,3,4-oxadiazol-2-yl)-2-((R)-2,2-difluorocyclopropane-1-carbonyl)-2,6-diazaspiro[3.4]octan-6-yl)(piperidin-4-yl)methanone] | < 5.00 |
| < 5.00 | O=C(c1noc2cc(Cl)ccc12)N1CC(c2nnc(C(F)(F)c3ccc(Cl)c(Cl)c3)o2)C2(C1)CN(C(=O)[C@H]1CC1(F)F)C2 (some centres unmarked) [I-152] | < 5.00 |
| < 5.00 | O=C(C1COC1)N1CC(c2nnc(C(F)(F)c3ccc(Cl)c(Cl)c3)o2)C2(C1)CN(C(=O)[C@H]1CC1(F)F)C2 (some centres unmarked) [I-153] | < 5.00 |
| < 5.00 | O=C(c1cncs1)N1CC(c2nnc(C(F)(F)c3ccc(Cl)c(Cl)c3)o2)C2(C1)CN(C1CCOC1)C2 (centres unmarked) [I-154, (8-(5-((3,4-dichlorophenyl)difluoromethyl)-1,3,4-oxadiazol-2-yl)-2-(tetrahydrofuran-3-yl)-2,6-diazaspiro[3.4]octan-6-yl)(thiazol-5-yl)methanone] | < 5.00 |
| < 5.00 | O=C(c1ccn[nH]1)N1CC(c2nnc(C(F)(F)c3ccc(Cl)c(Cl)c3)o2)C2(C1)CN(C(=O)[C@H]1CC1(F)F)C2 (some centres unmarked) [I-155] | < 5.00 |

| pIC50 [1] | Compound | pIC50 [2] |
| --- | --- | --- |
| < 5.00 | O=C(c1noc2ccccc12)N1CC(c2nnc(C(F)(F)c3ccc(Cl)c(Cl)c3)o2)C2(C1)CN(C(=O)[C@H]1CC1(F)F)C2 (stereo partly drawn) [I-156, benzo[d]isoxazol-3-yl(8-(5-((3,4-dichlorophenyl)difluoromethyl)-1,3,4-oxadiazol-2-yl)-2-((R)-2,2-difluorocyclopropane-1-carbonyl)-2,6-diazaspiro[3.4]octan-6-yl)methanone] | < 5.00 |
| 5.00 to 6.00 | O=C(c1cncs1)N1CC(c2nnc(C(F)(F)c3ccc(Cl)c(Cl)c3)o2)C2(C1)CN(C(=O)[C@H]1CCCO1)C2 (some centres unmarked) [I-157] | < 5.00 |
| < 5.00 | O=C(C1CCOCC1)N1CC(c2nnc(C(F)(F)c3ccc(Cl)c(Cl)c3)o2)C2(C1)CN(C(=O)[C@H]1CC1(F)F)C2 (some centres unmarked) [I-158] | < 5.00 |
| < 5.00 | CC(C)(C#N)C(=O)N1CC2(CN(Cc3cncs3)CC2c2nnc(C(F)(F)c3ccc(Cl)c(Cl)c3)o2)C1 (centres unmarked) [I-159, 3-(8-(5-((3,4-dichlorophenyl)difluoromethyl)-1,3,4-oxadiazol-2-yl)-6-(thiazol-5-ylmethyl)-2,6-diazaspiro[3.4]octan-2-yl)-2,2-dimethyl-3-oxopropanenitrile] | < 5.00 |
| < 5.00 | O=C(C#CCO)N1CC(c2nnc(C(F)(F)c3ccc(Cl)c(Cl)c3)o2)C2(C1)CN(C(=O)[C@H]1CC1(F)F)C2 (some centres unmarked) [I-160] | < 5.00 |
| < 5.00 | O=C(c1cc(C(F)(F)F)n[nH]1)N1CC(c2nnc(C(F)(F)c3ccc(Cl)c(Cl)c3)o2)C2(C1)CN(C(=O)[C@H]1CC1(F)F)C2 (some centres unmarked) [I-161] | 5.00 to 5.30 |
| < 5.00 | O=C(c1[nH]ncc1F)N1CC(c2nnc(C(F)(F)c3ccc(Cl)c(Cl)c3)o2)C2(C1)CN(C(=O)[C@H]1CC1(F)F)C2 (some centres unmarked) [I-162] | < 5.00 |
| < 5.00 | O=C(c1[nH]ncc1C(F)(F)F)N1CC(c2nnc(C(F)(F)c3ccc(Cl)c(Cl)c3)o2)C2(C1)CN(C(=O)[C@H]1CC1(F)F)C2 (some centres unmarked) [I-163] | < 5.00 |
| < 5.00 | O=C(c1cncs1)N1CC(c2nnc(C(F)(F)c3ccc(Cl)c(Cl)c3)o2)C2(C1)CN(C(=O)[C@@H]1CCCO1)C2 (some centres unmarked) [I-164] | < 5.00 |
| 5.00 to 6.00 | O=C(c1cnc2ccccc2n1)N1CC(c2nnc(C(F)(F)c3ccc(Cl)c(Cl)c3)o2)C2(C1)CN(C(=O)[C@H]1CC1(F)F)C2 (some centres unmarked) [I-165] | < 5.00 |
| < 5.00 | O=C(c1nccnc1O)N1CC(c2nnc(C(F)(F)c3ccc(Cl)c(Cl)c3)o2)C2(C1)CN(C(=O)[C@H]1CC1(F)F)C2 (some centres unmarked) [I-166] | < 5.00 |
| < 5.00 | O=C(c1cn[nH]c1C(F)(F)F)N1CC(c2nnc(C(F)(F)c3ccc(Cl)c(Cl)c3)o2)C2(C1)CN(C(=O)[C@H]1CC1(F)F)C2 (stereo partly drawn) [I-167, (8-(5-((3,4-dichlorophenyl)difluoromethyl)-1,3,4-oxadiazol-2-yl)-2-((R)-2,2-difluorocyclopropane-1-carbonyl)-2,6-diazaspiro[3.4]octan-6-yl)(5-(trifluoromethyl)-1H-pyrazol-4-yl)methanone] | < 5.00 |
| < 5.00 | O=C(c1cncs1)N1CC(c2nnc(C(F)(F)c3ccc(Cl)c(Cl)c3)o2)C2(C1)CN(C(=O)[C@H]1CCCN1)C2 (stereo partly drawn) [I-169 1st, 2-(2-(D-prolyl)-6-(thiazole-5-carbonyl)-2,6-diazaspiro[3.4]octan-8-yl)-5-((3,4-dichlorophenyl)difluoromethyl)-1,3,4-oxadiazole] | 5.00 to 5.30 |
| < 5.00 | O=C(c1cncs1)N1CC(c2nnc(C(F)(F)c3ccc(Cl)c(Cl)c3)o2)C2(C1)CN(C(=O)[C@@H]1CCCN1)C2 (some centres unmarked) [I-169 2nd] | < 5.00 |
| < 5.00 | CC(C)(C(=O)N1CC2(C1)CN(c1ncnc3ncsc13)CC2c1nnc(C(F)(F)c2ccc(Cl)c(Cl)c2)o1)C(F)F (centres unmarked) [I-170, 1-(8-(5-((3,4-dichlorophenyl)difluoromethyl)-1,3,4-oxadiazol-2-yl)-6-(thiazolo[4,5-d]pyrimidin-7-yl)-2,6-diazaspiro[3.4]octan-2-yl)-3,3-difluoro-2,2-dimethylpropan-1-one] | < 5.00 |
| < 5.00 | O=C([C@H]1CC1(F)F)N1CC(c2nnc(C(F)(F)c3ccc(Cl)c(Cl)c3)o2)C2(C1)CN(C(=O)[C@H]1CC1(F)F)C2 (some centres unmarked) [I-171] | < 5.00 |
| < 5.00 | O=C(c1cncs1)N1CC(c2nnc(C(F)(F)c3ccc(Cl)c(Cl)c3)o2)C2(C1)CN(C(=O)C1CNC1)C2 (centres unmarked) [I-173] | < 5.00 |
